Assay results: patent US8557811B2, “Dual-color imaging method of sodium/calcium activities using two-photon fluorescent probes and preparation method of two-photon fluorescent probes” (Ajou University Industry—Academic Cooperation Foundation, priority 2010, dated 2013)
Where “and” joins values, the source holds several entries; their conditions need not be identical. Equal entries are not always repeated.

Legend:
[1] = Spectroscopic measurements (absorption, emission, fluorescence quantum yield); assay type: physicochemical; conditions: for Φ fluorescence photon efficiency: error range ±10%
Experimental: Absorption spectra were measured using a Hewlett-Packard 8453 diode array spectrophotometer, and fluorescence spectra were measured using an Amico-Bowman series 2 emission spectrometer having 1 cm standard quartz cell. Fluorescence quantum yield was determined using coumarin 307 (Φ=0.95 in MeOH) according to a previously known method.
Normalized absorption spectra of BCa1 in 1,4-dioxane, EtOH, DMF and H2O are shown in FIG. 2 (a), and normalized emission spectra of BCa1 in 1,4-dioxane, EtOH, DMF and H2O are shown in FIG. 2 (b).

[2] = Fluorescence response of ANa1 to Na+ in buffer; assay type: binding
[3] = Two-photon absorption cross section by femtosecond fluorescence spectroscopy; assay type: physicochemical; conditions: for λ^(2)max two-photon excitation wavelength: with cation (BCa1 + Ca2+, ANa1 + Na+); for δΦ two-photon operational cross section: with cation (BCa1: MOPS buffer with excess Ca2+; ANa1 + Na+), error range ±15%
Experimental: Two-photon operational emission δΦ of BCa1 in the MOPS buffer containing excess Ca^2+ was 150 GM at 780 nm, 3- to 5-fold improved over Calcium-Green-Ca^2+ or Fura-2-Ca^2+ (see FIG. 7). Thus, it can be seen that staining of cells with BCa1 can provide brighter TPM images as compared to other commercially available probes.
TPA cross section (6) was measured by femtosecond (fs) fluorescence spectroscopy. BCa1 was dissolved in 30 mM MOPS buffer (2.5 mM CaCl2, 100 mM KCl, pH 7.2) to a concentration of 5.0×10^−6 M, and two-photon excited fluorescence (TPEF) was measured at 740 to 940 nm using fluorescein (8.0×10^−6M, pH=11). TPEF intensity of reference and sample was determined at the same excitation wavelength. TPA cross section was calculated by Equation 1. δ=δr(Ssφrfrcr)/(Srφsfscs) [Equation 1]
In Equation 1, s and r respectively stand for sample and reference molecules, S represents the intensity of a signal collected by the CCD detector, Φ represents the fluorescence quantum yield, f represents the overall fluorescence collection efficiency of the experimental apparatus, c represents molecular density in the solution, and δr represents the TPA cross section of reference molecules.

[4] = Water solubility from fluorescence intensity versus dye concentration; assay type: physicochemical; conditions: H2O with DMSO at 0.20; highest concentration in the linear region; excitation 360 nm
Experimental: A stock solution (1.0×10^−2M) was prepared by dissolving the dye (BCa1) in DMSO. The solution was diluted (to 6.0×10^−3 to 6.0×10^−5 M) and transferred to a cuvette holding H2O (3.0 mL) using a microsyringe. In all cases, the concentration of DMSO in H2O was maintained at 0.20. […] The highest concentration in the linear region was determined as the solubility of BCa1, which was about 5.0 μM in water, being sufficient to stain cells.
One-photon fluorescence spectra of BCa1 are shown in FIG. 1 (a), and the fluorescence intensity of BCa1 in H2O depending on concentrations is shown in FIG. 1 (b). Excitation wavelength was 360 nm.

[5] = Fluorescence titration with free Ca2+ in MOPS buffer (one-photon and two-photon); assay type: binding
Experimental: This is caused by the blocking of photo-induced electron transfer (PET) resulting from complexation with the metal ions.
One-photon absorption curves of 1 μM BCa1 (30 mM MOPS, 100 mM KCl, pH 7.2) complex in the presence of free Ca^2+ are shown in FIG. 5 (a), one-photon and two-photon fluorescence titration curves are shown in FIG. 5 (b), and one-photon and two-photon Hill curves are shown in FIG. 5 (c).
The dissociation constants of BCa1 for the one-photon and two-photon processes (K^OPd and K^TPd) were calculated from the fluorescence titration curves of FIG. 5 (b).

[6] = Two-photon measurement in BCa1-labeled HeLa cells; assay type: cell-based
Experimental: HeLa cells were cultured in Dulbecco's modified Eagle's medium (DMEM; Gibco) supplemented with heat-inactivated 10% (v/v) fetal bovine serum (FBS; Gibco), 100 units/mL penicillin and 100 μg/mL streptomycin. The cells were grown under a humidified environment at 37° C. with air/CO2=95:5. Four days before imaging, the cells were harvested with a trypsin-EDTA solution and were transferred to a glass-bottomed dish (MatTek) with […]. The cells were treated at 37° C. for 20 minutes with 2 μM ANa1, and then loaded with 0.5 μM BCa1 at room temperature. 10 minutes later, the cells were imaged after washing 2 times with a reduced calcium-balanced salt solution (RCBSS; 127 mM NaCl, 3.8 mM KCl, 1.2 mM KH2PO4, 0.8 mM MgCl2, 5 mM glucose and 10 mM HEPES buffer).
Two-photon fluorescence microscopic images of the probe-labeled HeLa cells and tissues were obtained using spectral confocal and multiphoton microscopes (Leica TCS SP2).

[7] = One-photon fluorescence of BCa1 with free Ca2+ in LUVs; assay type: binding; conditions: LUVs of DOPC/sphingomyelin/CHL (1:1:1, raft mixture), free Ca2+ 2.5 mM, 25±0.5° C.
Experimental: LUVs for the measurement of one-photon and two-photon spectra were prepared from a hydrated suspension of multilamellar vesicles by means of extrusion. Lipids were dissolved in CHCl3/MeOH (95/5 vol %) and then dried under N2 flow in vacuum. The resulting film was hydrated in MOPS buffer (30 mM MOPS, 100 mM KCl, pH 7.2) by shaking at 60° C. until the suspension became homogeneous. The mixture was subjected to 3 freeze-thaw cycles, and LUVs were extruded therefrom by passing through a membrane having 100 nm pores (Avanti Polar Lipids). To stain the vesicles, BCa1 dissolved in DMSO was added and then 30 minutes was allowed to pass. The proportion of the vesicles to the probe was 300:1. Temperature was measured using a digital thermometer having a precision of 0.1° C.
One-photon fluorescence spectra of complexes of free Ca^2+ (0 to 2.5 mM) and 1 μM BCa1 for LUVs composed of DOPC/sphingomyelin/cholesterol (1:1:1, raft mixture) are shown in FIG. 8 (a), and Hill curves are shown in FIG. 8 (b).
Normalized emission spectra of BCa1 containing free Ca^2+ (2.5 mM) in LUVs composed of DPPC/CHL (black curve), DOPC/sphingomyelin/CHL (1:1:1, raft mixture, blue curve) and DOPC (pink curve) at 25±0.5° C. are shown in FIG. 9 (a), and normalized emission spectra of BCa1 in HeLa cells are shown in FIG. 9 (b). […]

[8] = Relative fluorescence intensity for various cations; conditions: 1 μM BCa1
Experimental: (§1) Relative fluorescence intensity of 1 μM BCa1 for various cations are shown in FIG. 6 (a), and the effect of pH on one-photon fluorescence intensity of BCa1 is shown in FIG. 6 (b). […] Thus, the probe allows selective detection of Ca^2+ without minimized interference from other biologically relevant cations.

[9] = Effect of pH on one-photon fluorescence intensity; assay type: physicochemical
Experimental: as §1

[10] = in MeOH; cited from earlier work
[11] = with cation (BCa1 + Ca2+, ANa1 + Na+)
[12] = two-photon process (value in parentheses)

SMILES | λ^(1)max one-photon absorption wavelength ([1]; probe without added cation) | λ^flmax one-photon emission wavelength ([1]; probe without added cation) | Φ fluorescence photon efficiency ([1]; probe without added cation) | λ^(1)max one-photon absorption wavelength [1, 11] | λ^flmax one-photon emission wavelength [1, 11] | Φ fluorescence photon efficiency [1, 11] | FEF fluorescence enhancement factor (F − Fmin)/Fmin ([2]; one-photon process) | FEF fluorescence enhancement factor (F − Fmin)/Fmin [2, 12] | λ^(2)max two-photon excitation wavelength [3] | δΦ two-photon operational cross section [3] | solubility of BCa1 in water [4] | FEF fluorescence enhancement factor (F − Fmin)/Fmin ([5]; one-photon process) | FEF fluorescence enhancement factor (F − Fmin)/Fmin [5, 12] | maximum emissions of the two Gaussian curves fitted to the emission spectrum [6] | maximum emissions of the two Gaussian curves fitted to the emission spectrum [7] | fluorescence response to Fe^2+, Cu^2+ and Co^2+ [8] | fluorescence response to Mg^2+, Zn^2+ and Mn^2+ [8] | effect of pH on one-photon fluorescence intensity [9] | Φ fluorescence quantum yield of the reference [10]
COc1ccccc1N1CCOCCOCCN(c2ccc(NC(=O)CN(C)c3ccc4cc(C(C)=O)ccc4c3)cc2OC)CCOCC1 [ANa1, reference compound] | 367 nm | 500 nm | 0.08 | 367 nm | 500 nm | 0.65 | 8(8) | 8(8) | 780 nm | 95 GM |  |  |  |  |  |  |  |  | 
CN(CC(=O)Nc1ccc(N(CC(=O)O)CC(=O)O)c(OCC(=O)N2CCOCC2)c1)c1ccc2cc(-c3nc4ccccc4o3)ccc2c1 [BCa1] | 360 nm | 470 nm | 0.07 | 360 nm | 470 nm | 0.98 |  |  | 780 nm | 150 GM | about 5.0 μM | 13 | 14 | 430 nm and 460 nm | 436 nm and 467 nm | no response at all | weak responses | not affected by pH | 
CCNc1cc2oc(=O)cc(C(F)(F)F)c2cc1C [coumarin 307] |  |  |  |  |  |  |  |  |  |  |  |  |  |  |  |  |  |  | 0.95
